Test results taken from patent publication US12653190B2, “Heteroaryl-triazole compounds as pesticides” (Bayer Aktiengesellschaft, priority 2020, dated 2026).

Experiments:
Type in all cases: in vivo
[1] = tested on: Rhipicephalus (Boophilus) microplus larvae (strain Parkhurst, resistant against synthetic pyrethroids); assay: Rhipicephalus (Boophilus) microplus in-vitro contact test, larval cattle tick; settings: 5 μg/cm^2 (=500 g/ha), after 48 hours, read-out: efficacy (larvae dead or moribund)
Description: Rhipicephalus (Boophilus) microplus—In-Vitro Contact Tests Larval Cattle Tick (Strain Parkhurst, Resistant Against Synthetic Pyrethroids)
(§1) 9 mg compound is solved in 1 mL acetone and diluted with acetone to the desired concentration. 250 μL of the test solution is filled in 25 mL glass test tubes and homogeneously distributed on the inner walls by rotation and tilting on a shaking device (2 h at 30 rpm). With a compound concentration of 900 ppm, an inner surface of 44.7 cm^2 and a homogeneous distribution, a dose of 5 μg/cm^2 is achieved.
After the solvent has evaporated, each test tube is filled with 20-50 cattle tick larvae (Rhipicephalus microplus), closed with a perforated lid and incubated in a horizontal position at 85% relative humidity and 27° C. in an incubator. After 48 hours efficacy is determined. The larvae are patted on the ground of the tubes and negative geotactic behavior is recorded.
An efficacy of 100% means all larvae are dead or moribund; 0% means no larvae are dead or moribund.

[2] = tested on: green peach aphid (Myzus persicae); assay: Myzus persicae oral test; settings: 120 h, 4 ppm, after 5 days
Description: • Solvent: 100 parts by weight acetone
To produce a suitable preparation of active compound, 1 part by weight of active compound is mixed with the stated amount of solvent, and the concentrate is diluted with water to the desired concentration.
50 μL compound solution is filled in microtiter plates and 150 μL IPL41 insect medium (33%+15% sugar) is added to obtain a total volume of 200 μL per well. Afterwards the plates are sealed with parafilm through which a mixed population of the green peach aphid (Myzus persicae) can suck on the compound preparation.
(§2) After 5 days mortality in % is determined. 100% means all aphids have been killed and 0% means none of the aphids have been killed.

[3] = tested on: adult mosquitoes Aedes aegypti strain MONHEIM; assay: Aedes aegypti test (AEDSAE surface treatment & contact assay); settings: 24 hours after contact, read-out: efficacy (mortality); for mortality at 4 mg/m2: surface concentration 4 mg/m^2, 30 minutes exposure; for mortality at 20 mg/m2: surface concentration 20 mg/m^2, 30 minutes exposure
Description: Aedes aegypti Test (AEDSAE Surface Treatment & Contact Assay)
(§3) • Solvent: Aceton+2000 ppm rapeseed oil methyl ester (RME)
(§4) In order to produce a sufficient, active ingredient containing solution it is necessary to solve the test compound in the solvent-mix (acetone at 2 mg/ml/RME 2000 ppm). This solution is pipetted onto a glazed tile and after evaporation of the acetone, adult mosquitoes of the species Aedes aegypti strain MONHEIM are placed onto the dried surface. The exposure time is 30 minutes.
(§5) Mortality in percent (%) is determined 24 hours after contact of the insects to the treated surface. 100% mortality means that all tested insects are dead, whereas 0% means that no insect died.

[4] = tested on: larvae of the southern green stink bug (Nezara viridula); assay: Nezara viridula spray test; settings: 96 h, after 4 days, barley plants
How it was run: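 Compound in acetone/DMF was diluted in water with 1000 ppm alkylarylpolyglycol ether emulsifier. Barley plants were sprayed with it, then infested with Nezara viridula larvae. Mortality % was scored after 4 days (100% = all killed).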

[5] = tested on: fall armyworm larvae (Spodoptera frugiperda); assay: Spodoptera frugiperda spray test; settings: in Zea mays, 168 h
How it was run: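 Maize leaf sections were sprayed with compound in acetone/dimethylformamide diluted in water with 1000 ppm emulsifier, dried, then infested with larvae. Mortality in % was scored after 7 days, 100% meaning all caterpillars killed.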

[6] = tested on: larvae of the banded cucumber beetle (Diabrotica balteata); assay: Diabrotica balteata spray test; settings: 168 h, 100 g/ha (=32 μg/well), after 7 days, wheat seeds, read-out: efficacy (seedling growth)
How it was run: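 Germinated wheat seeds on agar (5 per well) were sprayed with compound formulated in acetone/DMF and diluted in water with 1000 ppm emulsifier. Each unit was then infested with 10–20 larvae. Efficacy % was scored after 7 days as seedling growth relative to an untreated, uninfested control (100% = normal growth).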

[7] = tested on: adult mosquitoes Culex quinquefasciatus strain P00; assay: Culex quinquefasciatus test (CULXFA surface treatment & contact assay); settings: 24 hours after contact, read-out: efficacy (mortality); for mortality at 20 mg/m2: surface concentration 20 mg/m^2, 30 minutes exposure
Description: Culex quinquefasciatus Test (CULXFA Surface Treatment & Contact Assay)
as §3
as §4, with “2 000” for “2000”, “Culex Quinquefasciatus” for “Aedes aegypti”, “P00” for “MONHEIM”, “minutes. Mortality in percent (%) is determined 24 hours after contact of the insects to the treated surface. 100% mortality means that all tested insects are dead, whereas 0% means that no insect died.” for “minutes.”

[8] = tested on: adult brown dog ticks (Rhipicephalus sanguineus); assay: Rhipicephalus sanguineus in-vitro contact test, adult brown dog ticks; settings: 5 μg/cm^2 (=500 g/ha), after 48 hours, read-out: efficacy (ticks dead or moribund)
Description: Rhipicephalus sanguineus—In-Vitro Contact Tests with Adult Brown Dog Ticks
as §1
(§6) After the solvent has evaporated, each test tube is filled with 5-10 adult brown dog ticks (Rhipicephalus sanguineus), closed with a perforated lid and incubated in a lying position at room temperature and relative humidity. After 48 hours efficacy is determined. The ticks are patted on the ground of the tubes and are incubated on a heating plate at 45-50° C. for at most 5 minutes Immotile or uncoordinated moving ticks, which are not able to escape the heat by climbing upwards, are marked as dead or moribund.
An efficacy of 100% means all ticks are dead or moribund; 0% means no ticks are dead or moribund.

[9] = tested on: adult flies Musca domestica strain WHO-N; assay: Musca domestica test (MUSCDO surface treatment & contact assay); settings: 24 hours after contact, read-out: efficacy (mortality); for mortality at 4 mg/m2: surface concentration 4 mg/m^2, 30 minutes exposure; for mortality at 20 mg/m2: surface concentration 20 mg/m^2, 30 minutes exposure
Description: Musca domestica Test (MUSCDO Surface Treatment & Contact Assay)
as §3
as §4, with “flies” for “mosquitoes”, “Musca domestica” for “Aedes aegypti”, “WHO-N” for “MONHEIM”
as §5

[10] = tested on: adult cat fleas (Ctenocephalides felis); assay: Ctenocephalides felis in-vitro contact test, adult cat flea; settings: 5 μg/cm^2 (=500 g/ha), after 48 hours, read-out: efficacy (fleas dead or moribund)
Description: Ctenocephalides felis—In-Vitro Contact Tests Adult Cat Flea
as §1
as §6, with “cat fleas (Ctenocephalides felis),” for “brown dog ticks (Rhipicephalus sanguineus),”, “fleas” for “ticks”, “fleas,” for “ticks,”
An efficacy of 100% means all fleas are dead or moribund; 0% means no fleas are dead or moribund.

[11] = tested on: southern root-knot nematode (Meloidogyne incognita); assay: Meloidogyne incognita test; settings: 20 ppm, after 14 days
Description: Meloidogyne incognita—Test
• Solvent: 125.0 parts by weight of acetone
To produce a suitable preparation of active compound, 1 part by weight of active compound is mixed with the stated amount of solvent, and the concentrate is diluted with water to the desired concentration. Vessels are filled with sand, a solution of the active ingredient, a suspension containing eggs and larvae of the southern root-knot nematode (Meloidogyne incognita) and salad seeds. The salad seeds germinate and the seedlings grow. Galls develop in the roots.
After 14 days the nematicidal activity is determined on the basis of the percentage of gall formation. 100% means no galls were found and 0% means the number of galls found on the roots of the treated plants was equal to that in untreated control plants.

[12] = tested on: green peach aphid (Myzus persicae); assay: Myzus persicae spray test; settings: foliar, 120 h, after 5 days, Chinese cabbage leaf disks
Description: Myzus persicae—Spray Test
• Solvent: 78.0 parts by weight acetone • 1.5 parts by weight dimethylformamide • Emulsifier: alkylarylpolyglycol ether
To produce a suitable preparation of active compound, 1 part by weight of active compound is mixed with the stated amount of solvents and is diluted with water, containing an emulsifier concentration of 1000 ppm, to the desired concentration. Further test concentrations are prepared by dilution with emulsifier containing water.
Chinese cabbage (Brassica pekinensis) leaf disks infected with all instars of the green peach aphid (Myzus persicae), are sprayed with a preparation of the active ingredient of the desired concentration.
as §2

With C[C@H](NC(=O)c1cc(Cl)cc(C(=O)C2CC2)c1)c1ncnn1-c1ccc(C#N)cn1 [Example I-35] as the compound, how does the pest or weed control at 5 µg/cm2, 5 µg/cm2 [1] read?
The pest or weed control at 5 µg/cm2, 5 µg/cm2 was 100%.

And the mortality at 4 ppm [2]?
The mortality at 4 ppm was 100%.

What about the mortality at 4 mg/m2 [3] of the same compound?
Its mortality at 4 mg/m2 is 80 to 100%.

And the mortality at 20 mg/m2 [3]?
The mortality at 20 mg/m2 was 80 to 100%.

What about the mortality at 100 g/ha [4] of the same compound?
Its mortality at 100 g/ha is 100%.

And the mortality at 100 g/ha [5]?
Its mortality at 100 g/ha is 100%.

And the pest or weed control at 32 µg/disc, 100 g/ha [6]?
Its pest or weed control at 32 µg/disc, 100 g/ha is 100%.

What about the mortality at 20 mg/m2 [7] of the same compound?
Its mortality at 20 mg/m2 is 80 to 100%.

And the pest or weed control at 5 µg/cm2, 5 µg/cm2 [8]?
The pest or weed control at 5 µg/cm2, 5 µg/cm2 was 80%.

And the mortality at 4 mg/m2 [9]?
The mortality at 4 mg/m2 was 80 to 100%.

What about the mortality at 20 mg/m2 [9] of the same compound?
Its mortality at 20 mg/m2 is 80 to 100%.

What about the pest or weed control at 5 µg/cm2, 5 µg/cm2 [10] of the same compound?
The pest or weed control at 5 µg/cm2, 5 µg/cm2 was 100%.

With C[C@H](NC(=O)c1cc(OCC2CC2(Cl)Cl)cc(C(F)(F)F)c1)c1ncnn1-c1ccc(C#N)cn1 (stereo partly shown) [Example I-29] as the compound, how does the mortality at 4 ppm [2] read?
Its mortality at 4 ppm is 90%.

What about the pest or weed control at 32 µg/disc, 100 g/ha [6] of the same compound?
Its pest or weed control at 32 µg/disc, 100 g/ha is 100%.

For COc1nc([C@H](C)NC(=O)c2cc(Cl)cc(C(C)(C)C#N)c2)n(-c2ccc(C#N)cn2)n1 [Example I-39], which “nematicidal activity (gall formation)” value [11] is on record?
The value was 100%.

And the mortality at 100 g/ha [5]?
Its mortality at 100 g/ha is 100%.

And the pest or weed control at 32 µg/disc, 100 g/ha [6]?
Its pest or weed control at 32 µg/disc, 100 g/ha is 100%.

C[C@H](NC(=O)c1cc(OCC(Cl)=C(Cl)Cl)cc(C(F)(F)F)c1)c1ncnn1-c1ncc([N+](=O)[O-])s1 [Example I-34] was tested. Which mortality at 4 ppm [2] did it give?
Its mortality at 4 ppm is 90%.

Which pest or weed control at 5 µg/cm2, 5 µg/cm2 [1] does the source give for C[C@H](NC(=O)c1cc(C(F)(F)F)cc(C(C)(C)C#N)c1)c1ncnn1-c1ncc(C#N)s1 [Example I-44, 3-(1-Cyano-1-methyl-ethyl)-N-[(1S)-1-[2-(5-cyanothiazol-2-yl)-1,2,4-triazol-3-yl]ethyl]-5-(trifluoromethyl)benzamide] here?
The pest or weed control at 5 µg/cm2, 5 µg/cm2 was 100%.

What about the mortality at 4 mg/m2 [3] of the same compound?
Its mortality at 4 mg/m2 is 80 to 100%.

And the mortality at 20 mg/m2 [3]?
The mortality at 20 mg/m2 was 80 to 100%.

What about the mortality at 100 g/ha [4] of the same compound?
Its mortality at 100 g/ha is 100%.

And the mortality at 500 g/ha ([4]; 500 g/ha)?
The mortality at 500 g/ha was 100%.

And the mortality at 100 g/ha [5]?
Its mortality at 100 g/ha is 100%.

And the mortality at 4 mg/m2 ([7]; surface concentration 4 mg/m^2, 30 minutes exposure)?
The mortality at 4 mg/m2 was 80 to 100%.

What about the mortality at 20 mg/m2 [7] of the same compound?
The mortality at 20 mg/m2 was 80 to 100%.

And the mortality at 100 g/ha [12]?
The mortality at 100 g/ha was 100%.

What about the pest or weed control at 5 µg/cm2, 5 µg/cm2 [8] of the same compound?
Its pest or weed control at 5 µg/cm2, 5 µg/cm2 is 80%.

What about the mortality at 4 mg/m2 [9] of the same compound?
Its mortality at 4 mg/m2 is 80 to 100%.

And the mortality at 20 mg/m2 [9]?
Its mortality at 20 mg/m2 is 80 to 100%.

What about the pest or weed control at 5 µg/cm2, 5 µg/cm2 [10] of the same compound?
Its pest or weed control at 5 µg/cm2, 5 µg/cm2 is 100%.
